{"source": "patent US20040014209A1", "about": "“Compositions and methods for modulating cell differentiation” (priority 2002, published 2004)", "key": {"[1]": {"test_system": "posterior lateral plate (PLP) mesoderm explants", "assay": "Cardiac induction in posterior lateral plate (PLP) mesoderm explants", "format": "cell-based, chick", "conditions": "PLP mesoderm cocultured with transfected COS cells; RT-PCR", "description": "(§1) As crescent is expressed in anterior endoderm at approximately the stage expected for a heart-inducing factor, we investigated whether this Wnt inhibitor could induce the formation of heart muscle in explanted gastrula-stage posterior tissues. We made a replication-competent RCAS-crescent retrovirus and examined whether viral crescent expression can substitute for anterior endoderm in the cardiac induction assay. Explants of either PLP-mesoderm or PPS were infected with RCAS viruses encoding either crescent (RCAS-crescent) or alkaline phosphatase (RCAS-AP).\n(§2) Eggs were incubated to the given stage (Hamburger and Hamilton 1951), and tissues were dissected with tungsten needles in Tyrodes solution using 1% agar dishes as a base. Serum-free medium containing insulin, transferrin, and selenium was adapted from Stern and Hauschka (1995) and supplemented with 2% chick embryo extract (Life Technologies). Virally infected explants were incubated on ice with viral supernatant diluted 1:1 with culture medium for 1-2 h, then cultured overnight in a sandwich of 35% collagen pads and overlaid with the above concentration of viral supernatant and medium containing 8 μg/mL polybrene. The following day, 0.25 mL of culture medium was added to each well. Anterior endoderm and COS cell cocultures were carried out on 2-μ pore size Nucleopore filters floating on culture medium. […]"}, "[2]": {"test_system": "posterior primitive streak (PPS) explants", "assay": "Cardiac induction in posterior primitive streak (PPS) explants", "format": "cell-based, chick", "conditions": "PPS cocultured with transfected COS cells; RT-PCR", "description": "as §1, §2"}}}
{"substance": "dkk-1", "values": [{"measurement": "Cardiac gene expression (Nkx-2.5, CMHC1)", "setting": "[1]", "result": "induced both Nkx2.5 and CMHC1"}, {"measurement": "Cardiac gene expression (Nkx-2.5, CMHC1)", "setting": "[2]", "result": "failed to activate cardiac gene expression"}]}
